Literature values, collected in patent US20250000839A1, “PHARMACEUTICAL COMPOSITION COMPRISING ENAVOGLIFLOZIN” (DAEWOONG PHARMACEUTICAL CO., LTD., priority 2021, published 2025).

Key:
[1] = phase 2 clinical trials; 0.1 mg, 0.3 mg and 0.5 mg groups
[2] = at a very low dose of 1/100th of the dose compared to the same class of drugs
[3] = target: T1, human SGLT2 (Homo sapiens, UniProt P31639); conditions: disclosed in U.S. Patent Publication No. 2015/0152075
T1 sequence (P31639 1-672): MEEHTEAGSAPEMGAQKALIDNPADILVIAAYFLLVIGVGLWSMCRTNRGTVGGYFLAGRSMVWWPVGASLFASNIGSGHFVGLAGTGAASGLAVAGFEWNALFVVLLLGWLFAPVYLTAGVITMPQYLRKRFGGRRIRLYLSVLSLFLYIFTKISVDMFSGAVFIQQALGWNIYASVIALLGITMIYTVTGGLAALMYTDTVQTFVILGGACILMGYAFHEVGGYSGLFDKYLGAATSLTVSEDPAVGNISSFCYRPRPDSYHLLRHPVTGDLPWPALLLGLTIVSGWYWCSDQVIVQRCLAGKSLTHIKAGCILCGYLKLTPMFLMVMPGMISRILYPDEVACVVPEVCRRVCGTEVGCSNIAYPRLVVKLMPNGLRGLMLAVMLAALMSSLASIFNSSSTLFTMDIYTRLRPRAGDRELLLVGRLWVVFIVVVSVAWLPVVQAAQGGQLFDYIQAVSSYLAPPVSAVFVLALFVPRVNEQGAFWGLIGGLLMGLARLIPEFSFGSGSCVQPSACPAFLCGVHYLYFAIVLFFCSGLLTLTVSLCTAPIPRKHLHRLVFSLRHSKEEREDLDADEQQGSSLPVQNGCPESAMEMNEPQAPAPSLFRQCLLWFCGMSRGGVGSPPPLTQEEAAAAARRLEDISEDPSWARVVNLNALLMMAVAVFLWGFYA

inhibitory effect on human SGLT2 activity [3]: excellent inhibitory effect
Structure (SMILES): OC[C@H]1O[C@@H](c2cc(Cc3ccc(C4CC4)cc3)c(Cl)c3c2CCO3)[C@H](O)[C@@H](O)[C@@H]1O [enavogliflozin, (2S,3R,4R,5S,6R)-2-(7-chloro-6-(4-cyclopropylbenzyl)-2,3-dihydrobenzofuran-4-yl)-6-(hydroxymethyl)tetrahydro-2H-pyran-3,4,5-triol]
blood sugar-lowering effect compared to the placebo [1]: statistically significant blood sugar-lowering effect
urinary sugar secretion (glucose excreted in urine) efficacy [2]: excellent
